# Measurements as given in patent US20020052390A1, “METHODS AND MATERIALS FOR TREATING AND PREVENTING INFLAMMATION OF MUCOSAL TISSUE” (priority 1997, published 2002).
# Values joined by “and” are separate entries in the source; they are usually repeats but may differ in a detail not shown here. Equal entries are not always repeated. Where two headings read alike, the source gives them in different places.
# What was measured:
# [1] = tested on: fungal organisms within their mucus; experiment: Analysis of mucus samples of non-responding patients for resistance; type: cell-based; details: five of the nine non-responding patients
# Source text: Eleven of the 53 patients went from endoscopic evaluation stage 2 or 3 to stage 1 after three months. […] Five of the nine non-responding patients had previously collected mucus samples that were available for examination.
# [2] = tested on: non-invasive fungus-induced rhinosinusitis patients; experiment: Amphotericin B nasal irrigation study, three month follow-up (Example 2); type: in vivo, human
# Source text: In addition to patient interviewing, CT scan analysis, visual examination, and fungal culture analysis, two types of evaluations were used to score the success of the treatment: an endoscopic evaluation and a patient symptom evaluation.
# [3] = tested on: patients with chronic asthma; experiment: Chronic asthma symptoms in patients of the Example 2 study (Example 5); type: in vivo, human
# Description: One hundred and thirty-two consecutive rhinosinusitis patients were entered into a study to evaluate the use of an antifungal agent to treat non-invasive fungus-induced rhinosinusitis. […] The 125 non-invasive fungus-induced rhinosinusitis patients were started on an antifungal treatment of about 20 mL of an amphotericin B solution per nostril, two to four times daily for at least three months. The concentration of the amphotericin B solution was about 100 mg per liter of saline or water. A 20 mL bulb was used by the patient to mucoadminister the amphotericin B solution into the patient's nasal-paranasal anatomy. Data were compiled for 53 of the patients who had returned for their three month follow-up analysis.
# [4] = tested on: non-invasive fungus-induced rhinosinusitis patients; experiment: Itraconazole nasal irrigation (Example 7); type: in vivo, human; details: for adverse local reaction to nasal irrigations: third patient
# Description: Three non-invasive fungus-induced rhinosinusitis patients (person, person, and person) were instructed to perform nasal irrigation with an itraconazole solution. The itraconazole solution contained about 100 mg of itraconazole per L of solution (10% PEG-400 in sterile water) and was prepared as described herein. […] Each patient reported marked improvement in symptoms within two weeks of starting the itraconazole irrigations (symptom scores: -1 to +2 and -1 to +1).
# After treatment with itraconazole, that patient reported symptom improvement (symptom score: from -1 to 0).
# [5] = tested on: patient with rhinosinusitis; experiment: Single patient study, one-sided then two-sided amphotericin B irrigation, RAST assay to Alternaria; type: in vivo, human
# Source text: In addition, the previously detected fungal load in the initially untreated side (right side) was sufficient to eventually cause presentation of visual or palpable rhinosinusitis symptoms in that initially untreated side. Further, the fungal organisms present in the initially untreated side (right side) induced high IgE titers, as shown by IgE readings from the RAST assays, independent of concurrent reduction of fungal organisms by antifungal treatment applied to the left side. In this case, a reduction of IgE readings from the RAST assays was only observed after irrigating both sides with an antifungal agent. Thus, the reduction of IgE and the prevention of disease symptoms coincided with the treatment of both sides with an antifungal agent.
# [6] = tested on: non-invasive fungus-induced rhinosinusitis patients; experiment: Patient data collected during a one week period (amphotericin B nasal irrigations); type: in vivo, human; design: Endoscopy Score B / Endoscopy Score A / Symptom Score B: scale not given here
# Source text: In addition to patient interviewing, CT scan analysis, visual examination, and fungal culture analysis, two types of evaluations were used to score the success of the treatment: an endoscopic evaluation and a patient symptom evaluation. These evaluations were scored as follows:
# Only previously seen patients that were instructed to use the antifungal amphotericin B nasal irrigations were entered into this study.
# During a one week period, twenty patients returned to the physician's office (Table II). The average age of the returning patients was 47 years (range 16-74 years). The patients were using the amphotericin B irrigations for an average duration of about six months (range 1-16 months). […] In addition, some patients were using topical and systemic steroid therapy. Further, some patients were using an antibiotic nasal irrigation in addition to the antifungal irrigations. The antibacterial solution contained 80 mg gentamicin per L saline (Wilson's solution). Some patients mixed the antibacterial solution with the antifungal solution and then performed the nasal irrigations while others used each solution separately in a sequential manner. Some patients also had other diseases including asthma (15 of the 20 patients) and colitis (2 of the 20 patients).
# [7] = tested on: non-invasive fungus-induced rhinosinusitis patients; experiment: Amphotericin B irrigations in patients without previous nasal surgery (Example 3); type: in vivo, human
# Source text: A person was diagnosed with non-invasive fungus-induced rhinosinusitis and instructed to perform amphotericin B irrigations twice a day.
# A person was diagnosed with non-invasive fungus-induced rhinosinusitis and instructed to perform amphotericin B irrigations twice a day, which was later increased to four times a day.
# A person was diagnosed with non-invasive fungus-induced rhinosinusitis and instructed to perform amphotericin B irrigations twice a day. This patient had been given intramuscular steroid shots every 3 to 8 months with the last shot being administered about seven months prior to starting the amphotericin B irrigations.
# [8] = tested on: non-invasive fungus-induced rhinosinusitis patient; experiment: Eosinophil count in mucosal biopsies after amphotericin B irrigations (Example 4); type: in vivo, human
# Source text: A person was diagnosed with non-invasive fungus-induced rhinosinusitis and instructed to perform amphotericin B irrigations twice a day. After nine months of amphotericin B irrigations, the patient underwent sinus surgery for further improvement. During the surgery mucosal biopsies were collected and the eosinophil count compared to the those obtained from biopsies collected from the patient during a surgery prior to the antifungal treatment.
# Trichoderma = experiment: MIC, macro broth dilution technique (NCCLS), isolates from rhinosinusitis patients; type: cell-based; details: 48 hour MIC reading
# Description: (§1) The following procedure was used to determine effective antifungal agents as well as effective concentrations of antifungal agents such that the fungal organisms isolated from patients can be prevented from growing or killed.
# (§2) Seventeen fungal isolates were collected from eight rhinosinusitis patients and tested for susceptibility against amphotericin B, ketoconazole, and itraconazole. Each antifungal agent was tested on these fungal isolates using the macro broth dilution technique according to the National Committee on Clinical Laboratory Standards (NCCLS) protocol. […] The results from this procedure provided an estimate of the efficacy of antifungal agents against specific fungal isolates in vitro.
# Geotrichum = experiment: as above; type: cell-based; details: 48 hour MIC reading
# Description: as §1, §2
# [9] = tested on: patient with asthma symptoms; experiment: Itraconazole nasal irrigation in an asthma patient, pulmonary function (Example 8); type: in vivo, human; details: before antifungal treatment
# Description: Sputum and nasal-paranasal mucus samples were collected and analyzed.
# The concentration of the itraconazole solution was about 100 mg per liter. After a few weeks, the patient took their last course of systemic steroids. About two months after stopping the systemic steroids, the patient also stopped using the topical steroids as well as the bronchodilator.
# [10] = Oral itraconazole capsule, drug remaining in the bowel lumen (Example 10); type: in vivo, human; details: 100 mg capsule before bedtime, two hours after last meal, without cola
# Source text: Three out of five consecutive patients with chronic rhinosinusitis reported having a history of colitis. […] Each patient was instructed to take the capsule before bedtime a minimum of two hours after their last meal and without any cola. Food and cola beverages increase absorption of the drug.
# Candida = experiment: MIC, macro broth dilution technique (NCCLS), isolates from rhinosinusitis patients; type: cell-based; details: 48 h, 48 hour MIC reading, each table line is one isolate
# Description: as §1, §2
# Penicillium = experiment: as above; type: cell-based; details: 48 h, 48 hour MIC reading, each table line is one isolate
# Description: as §1, §2
# Cladosporium = experiment: as above; type: cell-based; details: 48 h, 48 hour MIC reading, each table line is one isolate
# Description: as §1, §2
# [11] = Concentrations of itraconazole in solution by HPLC; type: physicochemical; details: read-out: Soluble Itraconazole Concentration
# Description: Itraconazole formulations were made by dissolving itraconazole into polyethylene glycol (PEG) to form an itraconazole stock solution. […] Typically, PEG 400 was used to dissolve the itraconazole. Once dissolved, the stock solution was filtered to remove any insoluble material. Then, the stock solution was prepared for use by dilution with sterile water. […] One liter of heated (70° C.) PEG-400 was added to the graduated cylinder containing the itraconazole. The mixture was then placed onto a stirring hot plate and maintained at 70° C. for 30 minutes. After 30 minutes, the hot suspension was filtered through a urine stone filter into a glass container and allowed to cool to room temperature. Once cooled, 100 mL of the filtered solution was placed into an empty plastic bottle. Then, 900 mL of sterile water was added and the solution mixed. Once mixed, one drop of flavoring was added (peppermint oil). […] The following concentrations of itraconazole were determined for each indicated solution by HPLC (Table III).
# [12] = patient symptom evaluation after treatment, 53 patients
# [13] = after antifungal treatment (1-16 months, 1-2 x day), each table line is one patient
# [14] = before antifungal treatment, each table line is one patient
# [15] = sixteen days after starting the itraconazole irrigations
smiles,measurement,setting,value
"C[C@@H]1[C@H](O)[C@@H](C)/C=C/C=C/C=C/C=C/C=C/C=C/C=C/[C@H](O[C@@H]2O[C@H](C)[C@@H](O)[C@H](N)[C@@H]2O)C[C@@H]2O[C@](O)(C[C@@H](O)C[C@@H](O)[C@H](O)CC[C@@H](O)C[C@@H](O)CC(=O)O[C@H]1C)C[C@H](O)[C@H]2C(=O)O [Amphotericin B, amphotericin B]",susceptibility of fungal organisms in mucus of non-responding patients,[1],resistant
same,patients who went from endoscopic evaluation stage 2 or 3 to stage 0,"[2]; about 20 mL amphotericin B solution (about 100 mg per liter) per nostril, two to four times daily, after three months, 53 patients",33 of the 53
same,CT scan finding,"[2]; one patient with bilateral rhinosinusitis, 20 mL (100 mg/L) per nostril two times daily, after four months",complete disappearance of opacity and symptoms characteristic of rhinosinusitis
same,patients giving themselves symptom stage 0,[2]; [12],six of the 53
same,patients giving themselves symptom stage 1,[2]; [12],three of the 53
same,patients giving themselves symptom stage 2,[2]; [12],44 of the 53
same,patients who did not respond to the treatment (endoscopic evaluation),"[2]; same regimen, after three months, 53 patients",nine
same,number of different fungal species in mucus after treatment,"[2]; several patients, mucus cultured before and after antifungal treatment",remarkably reduced
same,asthmatic patients declaring an improvement or complete elimination of asthma symptoms,"[3]; after three months of antifungal treatment, 37 asthmatic patients",28 of the 37
same,patients with improved pulmonary function (pulmonary function test before and after),[3]; four patients tested,all four
same,patients who stopped taking their asthma medication,[3]; of the 28 patients no longer exhibiting asthma symptoms,26 of the 28
same,adverse local reaction to nasal irrigations,[4],burning sensation
same,RAST reading to Alternaria,[5]; after right-side surgery and treatment of both sides for about seven weeks,4.47 KU/L
same,clinical status,[5]; after treatment of both sides for about seven weeks,symptom-free
same,Endoscopy Score A,[6]; [13],0 (10×) and 3 (5×) and 1 (2×)
same,Symptom Score A,[6]; [13],+1 (6×) and +2 (6×) and 0 (6×) and −2 and 1
same,Endoscopy Score B,[6]; [14],1 (3×) and 2 (5×) and 3 (10×) and 0
same,Symptom Score B,[6]; [14],−1 (14×) and −2 (6×)
same,endoscopic evaluation of rhinosinusitis condition,[6]; most of twenty patients,observable improvement
same,endoscopic score after treatment,[7]; amphotericin B irrigations twice (to four times) a day for four to sixteen months,0
same,symptom score before treatment,[7]; patients without previous nasal surgery,−1
same,eosinophil count in mucosal biopsies,"[8]; all the sinuses except the frontal, after nine months of irrigations twice a day",< 5%
same,eosinophil count in the frontal sinus biopsy,"[8]; frontal sinus (obstructed, irrigation presumably did not reach it), after nine months",10%
same,MIC,Trichoderma,4 µg/mL
same,MIC,Geotrichum,0.1 µg/mL
"CCC(C)n1ncn(-c2ccc(N3CCN(c4ccc(OCC5COC(Cn6cncn6)(c6ccc(Cl)cc6Cl)O5)cc4)CC3)cc2)c1=O (centres unmarked) [Itraconazole, itraconazole]",forced expiratory volume in 1 second (FEV1) before treatment,[9],3.34 L
same,forced vital capacity (FVC) before treatment,[9],3.99 L
same,maximal forced expiratory flow (FEFmax) before treatment,[9],9.1 liter per second
same,maximum voluntary ventilation (MVV) before treatment,[9],119 liter per minute
same,symptom score before itraconazole irrigations,[4]; itraconazole solution about 100 mg per L (10% PEG-400 in sterile water),-1
same,"endoscopic score, left side, before",[4]; one patient,1
same,"endoscopic score, right side, before",[4]; one patient,1
same,"endoscopic score, left side, after",[4]; [15],1
same,"endoscopic score, right side, after",[4]; [15],0
same,adverse local reaction to nasal irrigations,[4],did not have any adverse local reaction
same,itraconazole that should remain in the bowel lumen,[10],about 50%
same,MIC,Candida,0.03 µg/mL
same,MIC,Penicillium,0.5 µg/mL
same,MIC,Cladosporium,0.125 µg/mL
same,solubility,"[11]; PEG-400, organic solvent or mixture, 500 mg Itraconazole powder AS into 250 mL PEG-400 (stock solution)",1950 µg/mL
same,solubility at 30 min,"[11]; PEG-400, organic solvent or mixture, 2000 mg Itraconazole from capsules into 1 L PEG-400 (stock solution)",1840 µg/mL
same,solubility,"[11]; PEG-400/sterile water solution, aqueous with cosolvent or surfactant or cyclodextrin, kinetic from dmso stock, 100 mL capsule stock solution diluted with 900 mL sterile water",113 µg/mL
same,solubility,"[11]; PEG-400/sterile water solution, aqueous with cosolvent or surfactant or cyclodextrin, kinetic from dmso stock, 100 mL capsule stock solution plus 25 mL PEG-400 diluted with 875 mL sterile water",155 µg/mL
same,solubility,"[11]; PEG-400/sterile water solution, aqueous with cosolvent or surfactant or cyclodextrin, kinetic from dmso stock, 100 mL capsule stock solution plus 150 mL PEG-400 diluted with 750 mL sterile water",179 µg/mL
same,solubility,"[11]; PEG-400/sterile water solution, aqueous with cosolvent or surfactant or cyclodextrin, kinetic from dmso stock, 100 mL powder AS stock solution diluted with 900 mL sterile water",85 µg/mL
"CC(=O)N1CCN(c2ccc(OCC3COC(Cn4ccnc4)(c4ccc(Cl)cc4Cl)O3)cc2)CC1 (centres unmarked) [Ketoconazole, ketoconazole]",MIC,Trichoderma; read-out: MIC,50 µg/mL
same,MIC,Geotrichum; read-out: MIC,0.05 µg/mL
